In article PMC6913697 (Journal of Experimental Botany, 2019):

How the values were obtained:
Format in all cases: biochemical
LoCHS1 = biological target: T1, LoCHS1 (Lindsaea orbiculata, UniProt A0A4Y6I0N8); assay: LC-MS product analysis; details: 100 μM malonyl-CoA, 50 mM potassium phosphate pH 6.5, 35 °C, no CHIL
T1 sequence (A0A4Y6I0N8 1-405): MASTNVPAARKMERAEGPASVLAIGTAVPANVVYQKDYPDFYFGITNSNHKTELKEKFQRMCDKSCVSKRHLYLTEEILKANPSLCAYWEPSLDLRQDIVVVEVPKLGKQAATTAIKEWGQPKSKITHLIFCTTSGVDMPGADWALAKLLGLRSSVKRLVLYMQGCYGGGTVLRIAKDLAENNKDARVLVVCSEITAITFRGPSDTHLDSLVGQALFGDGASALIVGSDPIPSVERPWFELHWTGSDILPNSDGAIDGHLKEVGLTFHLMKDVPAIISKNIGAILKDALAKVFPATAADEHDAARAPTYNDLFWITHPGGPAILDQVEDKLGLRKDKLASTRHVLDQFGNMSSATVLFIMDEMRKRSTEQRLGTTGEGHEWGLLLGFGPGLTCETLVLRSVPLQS

LoCHS2 = biological target: T2, LoCHS2 (Lindsaea orbiculata, UniProt A0A4Y6I0P0); assay: LC-MS product analysis; details: 100 μM malonyl-CoA, 50 mM potassium phosphate pH 6.5, 35 °C, no CHIL
T2 sequence (A0A4Y6I0P0 1-439): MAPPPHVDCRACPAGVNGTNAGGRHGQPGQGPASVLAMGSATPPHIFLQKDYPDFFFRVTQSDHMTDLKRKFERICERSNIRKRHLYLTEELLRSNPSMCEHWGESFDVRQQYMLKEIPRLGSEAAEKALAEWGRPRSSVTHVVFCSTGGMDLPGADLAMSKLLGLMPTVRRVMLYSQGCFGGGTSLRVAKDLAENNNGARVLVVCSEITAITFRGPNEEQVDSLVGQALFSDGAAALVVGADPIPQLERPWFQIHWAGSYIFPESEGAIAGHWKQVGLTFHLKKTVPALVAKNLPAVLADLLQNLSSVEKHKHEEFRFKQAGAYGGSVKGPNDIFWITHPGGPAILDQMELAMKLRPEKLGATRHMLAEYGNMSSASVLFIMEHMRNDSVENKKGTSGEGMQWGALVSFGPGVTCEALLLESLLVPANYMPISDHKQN

HaCHI1 = biological target: T3, HaCHI1 (Haplopteris amboinensis, UniProt A0A4Y6I1E6); assay: HPLC product analysis
T3 sequence (A0A4Y6I1E6 1-214): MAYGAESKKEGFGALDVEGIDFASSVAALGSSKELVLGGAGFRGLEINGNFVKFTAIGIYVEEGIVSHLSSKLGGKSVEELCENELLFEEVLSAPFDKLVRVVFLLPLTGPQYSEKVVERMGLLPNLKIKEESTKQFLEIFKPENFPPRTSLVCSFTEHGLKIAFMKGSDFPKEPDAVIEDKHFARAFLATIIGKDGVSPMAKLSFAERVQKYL

PvCHI1 = biological target: T4, PvCHI1 (Pteris vittata, UniProt A0A4Y6I0P5); assay: HPLC product analysis
T4 sequence (A0A4Y6I0P5 1-214): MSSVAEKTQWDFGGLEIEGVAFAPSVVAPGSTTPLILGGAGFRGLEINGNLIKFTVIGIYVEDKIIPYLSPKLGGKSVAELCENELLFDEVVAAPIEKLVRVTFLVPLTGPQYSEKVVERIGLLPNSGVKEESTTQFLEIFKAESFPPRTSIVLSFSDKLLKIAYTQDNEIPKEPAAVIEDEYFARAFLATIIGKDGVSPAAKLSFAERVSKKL

AdcCHI1 = biological target: T5, AdcCHI1 (Adiantum caudatum, UniProt A0A4Y6I1H0); assay: HPLC product analysis
T5 sequence (A0A4Y6I1H0 1-214): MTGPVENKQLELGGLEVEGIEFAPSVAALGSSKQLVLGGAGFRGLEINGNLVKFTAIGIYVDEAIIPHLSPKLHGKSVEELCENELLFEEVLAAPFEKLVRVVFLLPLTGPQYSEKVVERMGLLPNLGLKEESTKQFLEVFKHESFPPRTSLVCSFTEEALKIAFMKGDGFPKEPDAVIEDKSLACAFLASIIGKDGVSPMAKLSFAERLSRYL

[1] = 50 μM substrate, 50 mM Tris-HCl pH 7.5, 25 °C

For `CC(C)(COP(=O)(O)OP(=O)(O)OC[C@H]1O[C@@H](n2cnc3c(N)ncnc32)[C@H](O)[C@@H]1OP(=O)(O)O)[C@@H](O)C(=O)NCCC(=O)NCCSC(=O)/C=C/c1ccc(O)cc1` [p-coumaroyl-CoA], the LC-MS product analysis (LoCHS1) was “reactions were provided with p-coumaroyl-CoA and malonyl-CoA” and the LC-MS product analysis (LoCHS2) was “reactions were provided with p-coumaroyl-CoA and malonyl-CoA”.

For `O=C(/C=C/c1ccc(O)cc1)c1ccc(O)cc1O` [isoliquiritigenin], the HPLC product analysis (HaCHI1; [1]) was “AcCHI1, AdcCHI1, AcaCHI1, HaCHI1, and PvCHI1 were all able to catalyze type II-specific substrates”, the HPLC product analysis (PvCHI1; [1]) was “AcCHI1, AdcCHI1, AcaCHI1, HaCHI1, and PvCHI1 were all able to catalyze type II-specific substrates” and the HPLC product analysis (AdcCHI1; [1]) was “AcCHI1, AdcCHI1, AcaCHI1, HaCHI1, and PvCHI1 were all able to catalyze type II-specific substrates”.

With `O=C(/C=C/c1ccc(O)cc1)c1c(O)cc(O)cc1O` [naringenin chalcone] the HPLC product analysis (HaCHI1; room temperature, 1 min) was “the other five (AcCHI1, AcaCHI1, AdcCHI1, HaCHI1, and PvCHI1) exhibited slight type II CHI activity”, the HPLC product analysis (PvCHI1; room temperature, 1 min) was “the other five (AcCHI1, AcaCHI1, AdcCHI1, HaCHI1, and PvCHI1) exhibited slight type II CHI activity” and the HPLC product analysis (AdcCHI1; room temperature, 1 min) was “the other five (AcCHI1, AcaCHI1, AdcCHI1, HaCHI1, and PvCHI1) exhibited slight type II CHI activity”.
